Tests used:
[1] = target: T1, pepsin (Sus scrofa, UniProt P00791); assay: Stability against GI enzymes in simulated gastric fluid (SGF); type: in vitro ADME; details: SGF: pepsin 2,000 U/mL in pH 1.2 solution, mixed 1:1 with sample (INS 0.2 mg/mL), 37 °C, 100 rpm, HPLC, n = 3
T1 construct: purchased Sigma–Aldrich Chemical Co. (St. Louis, MO, USA)
Procedure: Simulated gastric fluid (SGF) was prepared by adding pepsin to pH 1.2 solution to a concentration of 2,000 U/mL. Simulated intestinal fluid (SIF) was prepared by adding trypsin (5,000 BAEE U/mL), chymotrypsin (20 IU/mL), lipase (400 IU/mL), and bile salt (10 mM) to the Tris buffer (50 mM, pH 8.0). […] Then, 250 µL of either SGF or SIF was added to the 250 µL of each formulation for enzymatic degradation. The mixture was transferred to a shaking incubator (SI-900R; JeioTech, Daejeon, Korea) and incubated at 37 °C under shaking (100 rpm). Finally, […] of cooled 0.1% TFA in methanol was added at predetermined time points (0, 5, 15, 30, 60, and 120 min) to quench the enzymatic reaction. For intestinal enzyme study, the reaction was continued for 240 min. Finally, the amount of INS remaining in the obtained samples was quantified by HPLC, as described earlier.

[2] = log P by shake-flask method; type: physicochemical; details: shake-flask n-octanol/distilled water, mutually pre-saturated; 25 °C, 24 h, 50 rpm; HPLC of INS in both phases; HIP complexes at INS:counterion 1:6; mean, n = 3
Procedure: The log P values of different HIP complexes were determined by the shake-flask method (Zhang et al., [2021]). Prior to the experiment, distilled water and n-octanol were poured into a separatory funnel, vigorously shaken, and then allowed to settle for 24 h to mutually saturate. Stock solutions of HIP complexes in the saturated n-octanol were prepared and mixed with pre-saturated distilled water at a 1:10 (vol/vol) ratio. INS was dissolved in saturated distilled water and then mixed with pre-saturated n-octanol. The tube was incubated at 25 °C for 24 h with continuous shaking (50 rpm) and allowed to separate for 1 h, after which it was centrifuged at 16,000g for 10 min. Afterward, samples from both phases were carefully analyzed by HPLC.

[3] = system: trypsin, chymotrypsin, lipase, bile salt; assay: Stability against GI enzymes in simulated intestinal fluid (SIF); type: in vitro ADME; details: SIF: trypsin 5,000 BAEE U/mL, chymotrypsin 20 IU/mL, lipase 400 IU/mL, bile salt 10 mM, Tris 50 mM pH 8.0; mixed 1:1 with sample (INS 0.2 mg/mL); 37 °C, 100 rpm; 0–240 min; HPLC; first-order fit; n = 3
Procedure: Simulated intestinal fluid (SIF) was prepared by adding trypsin (5,000 BAEE U/mL), chymotrypsin (20 IU/mL), lipase (400 IU/mL), and bile salt (10 mM) to the Tris buffer (50 mM, pH 8.0). […] Then, 250 µL of either SGF or SIF was added to the 250 µL of each formulation for enzymatic degradation. The mixture was transferred to a shaking incubator (SI-900R; JeioTech, Daejeon, Korea) and incubated at 37 °C under shaking (100 rpm). Finally, 500 mL of cooled 0.1% TFA in methanol was added at predetermined time points (0, 5, 15, 30, 60, and 120 min) to quench the enzymatic reaction. For intestinal enzyme study, the reaction was continued for 240 min.

[4] = system: streptozotocin-induced diabetic Sprague–Dawley rats; assay: Pharmacodynamic study in diabetic rats (blood glucose level); type: in vivo, rat; details: for AAC0–8h (area above the blood glucose level curve, % of initial, 0–8 h) / BGLmin (minimum blood glucose level, % of initial levels) / Tmin (time to reach BGLmin): mean ± SD, n = 5–7
Procedure: To establish animal models of type 1 diabetes mellitus, male Sprague–Dawley rats were injected intraperitoneally with freshly prepared single doses of streptozotocin (60 mg/kg) dissolved in citrate buffer (0.1 M, pH 4.5). The successful induction of diabetes was corroborated by an increase in blood glucose levels after five days. Only the rats with fasting blood glucose levels higher than 250 mg/dL were considered diabetic.
All rats were fasted for 12 h before the experiment, with free access to water. […] Subsequently, blood samples were collected from the tail vein at different time intervals (0, 0.5, 1, 1.5, 2, 3, 4, 5, 6, and 8 h) and tested using a glucometer (GreenDoctor, GREENCROSS MEDIS Co., Chungnam, Korea). Based on the blood glucose level at 0 h (initial), each blood glucose level was converted to the relative level (% of initial). A value of 100% of the relative level was chosen as a reference point (upper limit) for the determination of the area above the blood glucose (% of initial)–time curve (AAC) values for decreased blood glucose levels.

T1 sequence (P00791 60-385): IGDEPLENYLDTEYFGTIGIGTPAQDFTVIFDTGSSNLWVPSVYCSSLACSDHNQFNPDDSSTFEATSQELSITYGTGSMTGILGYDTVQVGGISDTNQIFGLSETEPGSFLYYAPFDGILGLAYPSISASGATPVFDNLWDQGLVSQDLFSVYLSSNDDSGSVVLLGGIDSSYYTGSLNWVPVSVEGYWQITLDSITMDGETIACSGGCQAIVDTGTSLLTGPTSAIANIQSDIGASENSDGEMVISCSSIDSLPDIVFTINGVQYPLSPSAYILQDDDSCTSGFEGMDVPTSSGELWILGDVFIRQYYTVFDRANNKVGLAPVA

Insulin
Rate constant of INS degradation, simulated gastric fluid ([1]; 0–120 min, first-order fit): 0.1854 min⁻¹ | Half-life of INS, simulated gastric fluid [1]: 3.74 min | log P [2]: –1.61 | Rate constant of INS degradation, simulated intestinal fluid [3]: 0.1980 min⁻¹ | AAC0–8h (area above the blood glucose level curve, % of initial, 0–8 h) ([4]; SC injection, 5 IU/kg): 439.29 ± 30.00 %·h | BGLmin (minimum blood glucose level, % of initial levels) ([4]; SC injection, 5 IU/kg): 22.78 ± 1.92% | Tmin (time to reach BGLmin) ([4]; SC injection, 5 IU/kg): 3.20 ± 0.84 h | AAC0–8h (area above the blood glucose level curve, % of initial, 0–8 h) ([4]; oral gavage, 50 IU/kg): –44.47 ± 38.33 %·h | BGLmin (minimum blood glucose level, % of initial levels) ([4]; oral gavage, 50 IU/kg): 97.92 ± 1.23% | Tmin (time to reach BGLmin) ([4]; oral gavage, 50 IU/kg): 2.75 ± 0.25 h | antidiabetic effects (blood glucose level versus time) ([4]; oral, 50 IU/kg): negligible
